The values below come from PubChem BioAssay (NCI).

Where “and” joins values, the source holds several entries; their conditions need not be identical. Identical values can stand only once.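 Values below derive from 48-hour exposures of cells grown in 96-well plates, with endpoints linearly interpolated between the two concentrations bracketing the appropriate inhibition level. GI50 = concentration required for 50% inhibition of growth. TGI denotes the concentration required for complete inhibition of growth.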 Where a SMILES comes first, the peptide text is derived from it. The star is where a group is joined. Boc = CC(C)(C)OC(=O)*; OBn = c1ccc(CO*)cc1

Test systems include SN12C renal; UACC-62 melanoma; NCI-H460 lung; SNB-75 CNS; HOP-62 NSCLC; SW-620 colon; A549 NSCLC; SF-295 CNS; SK-MEL-2 melanoma.
Assay in all cases: NCI tumour cell line growth inhibition, 48 h

For `O=C1NC2(CCCCC2)C2CCCCCC12` (stereo not drawn), the TGI in the assay with SN12C renal, in the assay on UACC-62 melanoma, with NCI-H460 lung, with SNB-75 CNS, in the assay on HOP-62 NSCLC and in the assay on SW-620 colon was more than 100 µM each time. In addition, the TGI in the assay on A549 NSCLC and in the assay with SF-295 CNS was more than 100 µM each time.
Regarding `COC(=O)/C=C1\CCC(C)(C(=O)NS(=O)(=O)c2ccc(C)cc2)C1(C)C` (stereo not drawn), the TGI in the assay with SN12C renal, in the assay on UACC-62 melanoma, with NCI-H460 lung, in the assay with SK-MEL-2 melanoma, in the assay on HOP-62 NSCLC and in the assay with SW-620 colon was more than 100 µM throughout. For the same compound, the TGI in the assay with A549 NSCLC and in the assay on SF-295 CNS was more than 100 µM in each case.
With `c1ccc2c(c1)nc(NC1CCCC1)c1[nH]c(C3CCCC3)nc12`, the TGI with SN12C renal is more than 83.9 µM; in the assay on UACC-62 melanoma, 29.8 µM; with NCI-H460 lung, 27.1 µM; with SK-MEL-2 melanoma, 19.1 µM; in the assay with SNB-75 CNS, more than 100 µM; in the assay on HOP-62 NSCLC it was 35.9 µM. In addition, the TGI with SW-620 colon is 21.2 µM; with A549 NSCLC it was 58.8 µM; in the assay with SF-295 CNS, 32.8 µM.
As to `Cc1ccc(C(C2C(=O)N(C)C(=O)N(C)C2=O)C(F)(F)C(=O)N(C)C)cc1` (stereo not drawn), the TGI in the assay on UACC-62 melanoma, with NCI-H460 lung, with SK-MEL-2 melanoma, in the assay on SNB-75 CNS, with HOP-62 NSCLC and in the assay with SW-620 colon was more than 100 µM in each case. Besides, the TGI with A549 NSCLC and in the assay with SF-295 CNS was more than 100 µM each time.
Consider `NC(=O)C#CC(N)=O`, for which the GI50 in the assay on SN12C renal was 14.3 µM and 36.4 µM; in the assay on NCI-H460 lung it was 38.3 µM and 32.8 µM and > 100 µM; with HOP-62 NSCLC, 57.4 µM; in the assay with SW-620 colon, 5.74 µM and 3.1 µM and 15.2 µM; with A549 NSCLC it was 49.4 µM. The TGI in the assay with SN12C renal is 26.6 µM and > 100 µM; with UACC-62 melanoma, 28.4 µM and 29.5 µM and 43 µM; with NCI-H460 lung, 146 µM and 126 µM and > 100 µM; in the assay on SK-MEL-2 melanoma, 30.2 µM and 26.4 µM and 42.8 µM; in the assay with SNB-75 CNS, 79.8 µM and > 100 µM; with HOP-62 NSCLC, 211 µM and 170 µM and > 100 µM. Moreover, the TGI in the assay with SW-620 colon was 18.2 µM and 12.1 µM and 31.1 µM; with A549 NSCLC, 173 µM and 189 µM and > 100 µM; with SF-295 CNS it was 26.2 µM and > 31.6 µM.
As to `CN(C)CCSC(=Nc1ccccc1)N1CCCCC1`, the TGI was 32.6 µM in the assay on SN12C renal; 30.4 µM with UACC-62 melanoma; 33.8 µM in the assay with NCI-H460 lung; 31.3 µM with SK-MEL-2 melanoma; 59.6 µM in the assay with SNB-75 CNS; more than 100 µM in the assay with HOP-62 NSCLC. The TGI was 31.6 µM in the assay with SW-620 colon, more than 100 µM with A549 NSCLC and more than 100 µM in the assay with SF-295 CNS.
`CC(C)c1ccc(/C=C2\CSCC3=C2NC(=S)NC3c2ccc(C(C)C)cc2)cc1` (stereo not drawn): the TGI with SN12C renal, in the assay with UACC-62 melanoma, in the assay on NCI-H460 lung, in the assay on SK-MEL-2 melanoma, with HOP-62 NSCLC and in the assay on SW-620 colon was more than 100 µM in each case. Further, the TGI in the assay on A549 NSCLC and in the assay on SF-295 CNS was more than 100 µM throughout.
With `CC(NC(=O)C(NC(=O)OC(C)(C)C)C(C)C)C(=O)N1CCCC1C(=O)NCC(=O)NC(C(=O)NCC(=O)OCc1ccccc1)C(C)C` (stereo not drawn) (Boc-VAPGVG-OBn; configuration not given here), the TGI in the assay with SN12C renal, in the assay with UACC-62 melanoma, in the assay on NCI-H460 lung, with SK-MEL-2 melanoma, in the assay with SNB-75 CNS and in the assay with HOP-62 NSCLC was more than 100 µM each time. The TGI in the assay with SW-620 colon and in the assay with SF-295 CNS was more than 100 µM throughout.
With `c1ccc2c(c1)CCc1cc3cc4c(nc3nc1-2)-c1ccccc1CC4`, the TGI in the assay on SN12C renal, in the assay with UACC-62 melanoma, in the assay with NCI-H460 lung, in the assay on SNB-75 CNS, in the assay with HOP-62 NSCLC and in the assay on SW-620 colon was more than 100 µM in each case. The TGI with A549 NSCLC and with SF-295 CNS was more than 100 µM each time.
On to `[N-]=[N+]=CC(=O)OCC1SCCCS1`, for which the TGI in the assay on SN12C renal, with UACC-62 melanoma, in the assay on NCI-H460 lung, in the assay on SK-MEL-2 melanoma, in the assay with HOP-62 NSCLC and with SW-620 colon was more than 100 µM throughout. The same compound displayed a TGI in the assay on SF-295 CNS of more than 100 µM.
As to `N#C[S-].[Nd+3].c1ccc(-c2ccccn2)nc1.c1ccc(-c2ccccn2)nc1.c1ccc(-c2ccccn2)nc1`, the GI50 with SN12C renal was 5.82 µM; with UACC-62 melanoma it was 5.26 µM; with NCI-H460 lung it was 4.25 µM; with SK-MEL-2 melanoma, 8.47 µM; with SNB-75 CNS, 5.69 µM; with SW-620 colon it was 5.93 µM. The GI50 was 4.94 µM in the assay on A549 NSCLC and 2.35 µM in the assay with SF-295 CNS. Besides, the TGI in the assay on SN12C renal was more than 100 µM; in the assay with UACC-62 melanoma, 28.2 µM; in the assay on NCI-H460 lung it was 37.3 µM; in the assay with SK-MEL-2 melanoma it was 51.5 µM; in the assay with SNB-75 CNS, 84.4 µM; in the assay on SW-620 colon it was more than 100 µM. Besides, the results for the TGI in the assay with A549 NSCLC and in the assay with SF-295 CNS were more than 100 µM and 5.8 µM, respectively.
